# Laboratory results: patent publication US8481084B2, “Cholesterol-interacting layered phyllosilicates and methods of reducing hypercholesteremia in a mammal” (Amcol International Corporation, priority 2007, dated 2013)
# Assays:
# [1] = test system: New Zealand Male Rabbits fed a high cholesterol diet; assay: Plasma lipids in rabbits fed a high cholesterol diet, severe dyslipidemic model (Example 11); assay type: in vivo, New Zealand white rabbits
# Method: Male New Zealand white rabbits ([…]; Control group [n=5], Simvastatin Group [n=4], Compound A Group [n=5], Compound B Group [n=5] and Compound C Group [n=5]) were housed in individual cages in a room with constant humidity and temperature (22° C.) under a 12 h light-dark cycle, and fed a standard diet for 7 days. After 7 days, animals were fed 10 g of a regular chow diet plus 100 g of the same diet supplemented with 0.5% (w/v) cholesterol and 14.0% (w/v) coconut oil for an additional 28 days. The final diet administered to these rabbits (following dilution of 100 g of high fat/cholesterol diet with 10 g of regular chow) consistent of 0.45% (w/v) cholesterol and 12.75% (w/v) coconut oil. […] The total plasma cholesterol, ApoB, HDL and triglyceride concentrations of the subjects prior to drug treatment is set forth in FIGS. 1-4, respectively.
# For an additional 21 days (day 35 to day 56 of the study), a group of control animals (n=5) were maintained on the same diet (10 g regular chow diet plus 100 g of cholesterol/coconut diet) and four groups of animals were fed 100 g of cholesterol/coconut diet plus 10 g regular chow diet containing either simvastatin (3 mg/kg/day; n=4), Compound A (hydrogen protonated layered phyllosilicate material (prepared as described above in Example 2); 20 mg/kg/day; n=5), Compound B (layered phyllosilicate material with surface modified with lecithin prepared as described above in Example 5); 20 mg/kg/day; n=5) and Compound C (layered phyllosilicate material with surface acid treatment prepared as described above in Example 6) 20 mg/kg/day; n=5). Whole blood was collected (3 ml) prior to and 7, 14, and 21 days after initiation of treatment for plasma lipid determinations.
# Plasma total cholesterol and triglyceride concentrations were directly quantified using enzymatic kits (Sigma Aldrich). HDL-cholesterol concentrations were determined using the dextran sulfate-Mg^2+ precipitation method as developed by Wamick et al. (9). The Friedewald equation for determining LDL cholesterol could not be used in this rabbit fed model (10). However, measurement of apoB cholesterol (which takes into account LDL-cholesterol) concentrations were determined by subtracting HDL-cholesterol concentrations from total cholesterol concentrations.
# Statistical analysis: Results are expressed as mean±standard error of the mean (SEM). Statistical analyses were conducted using an analysis of variance (PCANOVA; Human Dynamic Systems) and assuming unequal variance (Newman Keuls post-hoc test; assuming unequal variance). Variables compared among treatment groups include, weight gain, total plasma cholesterol, total plasma triglyceride, HDL-cholesterol and ApoB-cholesterol. A p-value of less than 0.05 indicates a significant difference between treated and untreated groups.
# [2] = test system: intestinal cholesterol absorption; assay: Absorption of orally given [3H]cholesterol in rats, plasma AUC (Example 12); assay type: in vivo, male Sprague Dawley rats
# Method: The following Example was performed to determine the bioavailability and pharmacokinetics of dietary cholesterol following oral administration of different layered phyllosilicate material compounds to male Sprague Dawley rats, using the methodology reported in Wassan et al. J. Pharmaceut. Sci., 90:23-28, 2001.
# Preparation of cholesterol formulation: Commercially available 20% Intralipid® was diluted by external phase of emulsion to reach a triglyceride concentration of 10% v/v. Cold cholesterole as dissolved in 100% ethanol (1 mg/75 μl) and the solution was slowly added to the 10% Intralipid® with magnetic stirring. [^3H]cholesterol toluene solution (25 μl/ml) was then slowly added and then vortexed for 30 seconds. The formulation was then mixed by magnetic stirring for an additional 30 minutes until ready for administration. The final formulation contained 90% of the 10% Intralipid®, 7.5% ethanol and 2.5% toluene. The final concentrations of cold and radiolabeled cholesterol were 1 mg/ml and 25 μCi/ml, respectively.
# Preparation of Ezetimibe Formulation: Commercially Available Ezetimibe Tablets were crushed and suspended in double distilled water to reach final ezetimibe concentration of 5 mg/ml. The suspension was briefly vortexed and then stirred using a magnetic stirrer for about 1 hour until ready for administration.
# Preparation of the Stigmastanol Formulation: Stigmastanol was Pre-Wetted by Tween 80 (1% v/v final concentration) and suspended in 2% sodium carboxymethyl cellulose solution in double distilled water. The suspension was briefly vortexed for about 3 minutes, sonicated (Bransonic®3510) for 2 hours at ambient temperature and then stirred with a magnetic stirrer for 30 minutes until ready for administration. The final concentration of stigmastanol in the suspension was 25 mg/ml.
# Experimental design: All rats used in this study were cared for in accordance with the principles promulgated by the Canadian Council on Animal Care and the University of British Columbia. Adult male Sprague Dawley rats (weighing approximately 350 g) were obtained from UBC animal care unit (Vancouver, B. C., Canada). The rats were maintained under a 12 hour light ([…])/dark cycle and supplied with a standard laboratory diet (PMI Feeds, Richmond, Va., USA) and water ad libitum. The right external jugular vein was cannulated with a two-part catheter consisting of PE 50 connected to a short length of 0.02 inch silastic tubing inserted 3.2 cm past the clavicle (Hauss et al., Contemp Top Lab Anim Sci., 37(3):56-58 1998). The jugular cannula was tunneled beneath the skin and exteriorized through a small stab wound in the back of the neck. The animals were outfitted with jacket-and-tether assemblies and placed in metabolism cages for the duration of the study.
# Following completion of the surgical procedures, the animals were fasted overnight and permitted to recover for 16-20 hours. Free access to a drinking solution consisting of 5% glucose in lactated Ringer's solution was permitted postoperatively and throughout the study. The following treatment protocol was used. Following an overnight fast (12-16 hours), rats were divided into one of the following fourteen treatment groups and received a single-dose oral gavage (1 g Intralipid emulsion) at 0700 h of either:
# All of test Compounds A, G, H, I, J, K, L or M were given as a separate slurry to the animal by oral gavage.
# Following oral administration, serial blood samples were collected into EDTA-coated tubes predose and at 10 minutes predosing and at 0.5, 1, 2, 4, 6, 10, 24 28, 32 and 48 hours postdosing. The withdrawn blood was replaced by equal volume of normal saline to prevent hypovolemia. Rats remained fasted throughout the duration of blood sampling (12 h predosing+24 h postdosing=[…] total fasting). Plasma was obtained by centrifugation and analyzed for [^3H] cholesterol by radioactivity. […]
smiles,measurement,setting,value
"CCC(C)(C)C(=O)O[C@H]1C[C@@H](C)C=C2C=C[C@H](C)[C@H](CC[C@@H]3C[C@@H](O)CC(=O)O3)[C@H]21 [Simvastatin, simvastatin]","ApoB-Cholesterol, % C (percentage change from Day 35 to Day 56)","[1]; SVT 3 mg/kg/day, A, B, C 20 mg/kg/day, control +63%",−53%
same,"Total Cholesterol, % C (percentage change from Day 35 to Day 56)","[1]; SVT 3 mg/kg/day, A, B, C 20 mg/kg/day, control +68%",−52%
same,"Total Cholesterol, Day 35","[1]; beginning of drug treatment (day 35), mean ± SEM, SVT 3 mg/kg/day, A, B, C 20 mg/kg/day",1167 ± 276 mg/dL
same,"ApoB-Cholesterol, Day 35","[1]; beginning of drug treatment (day 35), total minus HDL cholesterol, mean ± SEM",1092 ± 265 mg/dL
same,"Total Cholesterol, Day 56","[1]; end of drug treatment (day 56), mean ± SEM, SVT 3 mg/kg/day, A, B, C 20 mg/kg/day",556 ± 122 mg/dL
same,"ApoB-Cholesterol, Day 56","[1]; end of drug treatment (day 56), total minus HDL cholesterol, mean ± SEM",517 ± 121 mg/dL
O=C1[C@H](CC[C@H](O)c2ccc(F)cc2)[C@@H](c2ccc(O)cc2)N1c1ccc(F)cc1 [ezetimibe],% of control group (AUC0-48 h),[2]; 10 mg/kg,8.6%
same,AUC0-48h (mean±SEM),[2]; 10 mg/kg ezetimibe,6940 ± 462 ng·h/mL
same,AUC0-48 h of cholesterol (mean ± SEM),"[2]; 10 mg/kg oral with [3H]cholesterol, control 80861 ± 5911",6937 ± 462 ng·h/mL
same,"inhibition of intestinal cholesterol absorption, in words",[2]; ezetimibe 10 mg/kg versus Compound A or stigmastanol 50 mg/kg,higher inhibition
CC[C@H](CC[C@@H](C)[C@H]1CC[C@H]2[C@@H]3CC[C@H]4C[C@@H](O)CC[C@]4(C)[C@H]3CC[C@]12C)C(C)C [stigmastanol],% of control group (AUC0-48 h),[2]; 50 mg/kg,68.9%
same,AUC0-48 h of cholesterol (mean ± SEM),[2]; 50 mg/kg oral with [3H]cholesterol,55742 ± 3764 ng·h/mL
